These results are taken from paper PMC8100446, “Perillaldehyde Inhibition of cGAS Reduces dsDNA-Induced Interferon Response” (Frontiers in Immunology, 2021).

Molecules are shown by their SMILES.

In this assay the target is T1, cyclic GMP-AMP synthase (cGAS) (Homo sapiens, UniProt Q8N884).
T1 construct: purified recombinant full-length cGAS
The assay is described as follows: in vitro cGAS enzymatic assay, cGAMP production measured by HPLC-MS. The assay is classed as biochemical.

T1 sequence (Q8N884 whole entry): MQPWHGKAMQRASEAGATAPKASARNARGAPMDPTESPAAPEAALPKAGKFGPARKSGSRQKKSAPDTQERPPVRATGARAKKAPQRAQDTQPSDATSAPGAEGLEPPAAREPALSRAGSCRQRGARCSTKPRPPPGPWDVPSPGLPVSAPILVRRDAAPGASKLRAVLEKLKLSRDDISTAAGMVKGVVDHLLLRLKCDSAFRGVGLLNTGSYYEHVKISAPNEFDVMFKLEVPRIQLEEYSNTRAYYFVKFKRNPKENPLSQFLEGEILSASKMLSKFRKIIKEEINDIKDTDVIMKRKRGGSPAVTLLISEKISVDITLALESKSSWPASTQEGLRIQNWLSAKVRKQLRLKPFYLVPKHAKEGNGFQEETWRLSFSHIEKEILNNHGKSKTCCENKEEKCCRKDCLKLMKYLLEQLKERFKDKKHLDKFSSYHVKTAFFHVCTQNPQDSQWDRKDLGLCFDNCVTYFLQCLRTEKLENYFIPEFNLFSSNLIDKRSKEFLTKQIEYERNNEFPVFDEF

Turning to `C=C(C)C1CC=C(C=O)CC1` (stereo not shown) [PAH, perillaldehyde], the concentration for half-maximal inhibition (IC50) was found to be 31.3 µM.
